Measured values as given in patent publication US9995734B2, “Human T cell line assay for evaluating the immunologic identity of glatiramer acetate preparations” (Mylan Inc., priority 2013, dated 2018).

System: Donor 3 COP T-Cell Lines
Test: ATP proliferation assay (CellTiter Glo), Donor 3 COP T-cell lines, incl. reactivity to non-canonical GA peptides
Assay type: cell-based, human
Conditions: for Reactivity (proliferation), Mean: Day 54 of culture; for Proliferation (luminescent ATP assay), Mean: Day 77 of culture, 0 μg/mL 1563

Substance: glatiramer acetate [COP]
- Mean, ATP proliferation assay (T-cell line 165-C4C, 10 μg/mL, Day 39): 28262
- Mean, ATP proliferation assay (T-cell line 165-C7C, 1 μg/mL, Day 39): 3670
- Mean, ATP proliferation assay (T-cell line 165-C7C, 3 μg/mL, Day 39): 16527
- Mean, ATP proliferation assay (T-cell line 165-C7C, 10 μg/mL, Day 39): 40194
- Mean, ATP proliferation assay (T-cell line 165-D2C, 1 μg/mL, Day 39): 3955
- Mean, ATP proliferation assay (T-cell line 165-D2C, 3 μg/mL, Day 39): 7378
- Mean, ATP proliferation assay (T-cell line 165-D2C, 10 μg/mL, Day 39): 14239
- Reactivity (proliferation), Mean (T-cell line 165-D3C, 1 μg/mL antigen, No Antigen 8319): 22689 RLU
- Mean, ATP proliferation assay (T-cell line 165-D3C, 1 μg/mL, Day 46, after 3 days): 1248 RLU
- Reactivity (proliferation), Mean (T-cell line 165-D3C, 3 μg/mL antigen, No Antigen 8319): 50369 RLU
- Mean, ATP proliferation assay (T-cell line 165-D3C, 3 μg/mL, Day 46, after 3 days): 79792 RLU
- Reactivity (proliferation), Mean (T-cell line 165-D3C, 10 μg/mL antigen, No Antigen 8319): 52151 RLU
- Mean, ATP proliferation assay (T-cell line 165-D3C, 10 μg/mL, Day 46, after 3 days): 86270 RLU
- Reactivity (proliferation), Mean (T-cell line 165-D3C, 100 μg/mL antigen, No Antigen 8319): 10140 RLU
- Mean, ATP proliferation assay (T-cell line 165-D3C, Day 32, 10 μg/mL): 3362 RLU
- Reactivity (proliferation), Mean (T-cell line 165-D11C, 1 μg/mL antigen, No Antigen 4571): 3410 RLU
- Mean, ATP proliferation assay (T-cell line 165-D11C, 1 μg/mL, Day 46, after 3 days): 486 RLU
- Reactivity (proliferation), Mean (T-cell line 165-D11C, 3 μg/mL antigen, No Antigen 4571): 6618 RLU
- Mean, ATP proliferation assay (T-cell line 165-D11C, 3 μg/mL, Day 46, after 3 days): 19410 RLU
- Reactivity (proliferation), Mean (T-cell line 165-D11C, 10 μg/mL antigen, No Antigen 4571): 15652 RLU
- Mean, ATP proliferation assay (T-cell line 165-D11C, 10 μg/mL, Day 46, after 3 days): 42017 RLU
- Reactivity (proliferation), Mean (T-cell line 165-D11C, 100 μg/mL antigen, No Antigen 4571): 12958 RLU
- Mean, ATP proliferation assay (T-cell line 165-D11C, Day 32, 10 μg/mL): 525 RLU
- Reactivity (proliferation), Mean (T-cell line 165-E3C, 1 μg/mL antigen, No Antigen 2797): 2592 RLU
- Mean, ATP proliferation assay (T-cell line 165-E3C, 1 μg/mL, Day 46, after 3 days): 364 RLU
- Reactivity (proliferation), Mean (T-cell line 165-E3C, 3 μg/mL antigen, No Antigen 2797): 14394 RLU
- Mean, ATP proliferation assay (T-cell line 165-E3C, 3 μg/mL, Day 46, after 3 days): 23785 RLU
- Reactivity (proliferation), Mean (T-cell line 165-E3C, 10 μg/mL antigen, No Antigen 2797): 39495 RLU
- Mean, ATP proliferation assay (T-cell line 165-E3C, 10 μg/mL, Day 46, after 3 days): 51822 RLU
- Reactivity (proliferation), Mean (T-cell line 165-E3C, 100 μg/mL antigen, No Antigen 2797): 20538 RLU
- Mean, ATP proliferation assay (T-cell line 165-E3C, Day 32, 10 μg/mL): 3778 RLU
- Reactivity (proliferation), Mean (T-cell line 165-F3C, 1 μg/mL antigen, No Antigen 3150): 7777 RLU
- Proliferation (luminescent ATP assay), Mean (T-cell line 165-F3C, 1 μg/mL antigen): 5027
- Reactivity (proliferation), Mean (T-cell line 165-F3C, 3 μg/mL antigen, No Antigen 3150): 36331 RLU
- Proliferation (luminescent ATP assay), Mean (T-cell line 165-F3C, 3 μg/mL antigen): 32906
- Mean, ATP proliferation assay (T-cell line 165-F3C, 3 μg/mL, Day 46, after 3 days): 75407 RLU
- Reactivity (proliferation), Mean (T-cell line 165-F3C, 10 μg/mL antigen, No Antigen 3150): 44047 RLU
- Proliferation (luminescent ATP assay), Mean (T-cell line 165-F3C, 10 μg/mL antigen): 62888
- Mean, ATP proliferation assay (T-cell line 165-F3C, 10 μg/mL, Day 46, after 3 days): 85442 RLU
- Reactivity (proliferation), Mean (T-cell line 165-F3C, 100 μg/mL antigen, No Antigen 3150): 9932 RLU
- Mean, ATP proliferation assay (T-cell line 165-F3C, Day 32, 10 μg/mL): 1141 RLU
- Reactivity (proliferation), Mean (T-cell line 165-F6C, 1 μg/mL antigen, No Antigen 2189): 13418 RLU
- Reactivity (proliferation), Mean (T-cell line 165-F6C, 3 μg/mL antigen, No Antigen 2189): 38973 RLU
- Mean, ATP proliferation assay (T-cell line 165-F6C, 3 μg/mL, Day 46, after 3 days): 31382 RLU
- Reactivity (proliferation), Mean (T-cell line 165-F6C, 10 μg/mL antigen, No Antigen 2189): 39560 RLU
- Mean, ATP proliferation assay (T-cell line 165-F6C, 10 μg/mL, Day 46, after 3 days): 34071 RLU
- Reactivity (proliferation), Mean (T-cell line 165-F6C, 100 μg/mL antigen, No Antigen 2189): 4332 RLU
- Mean, ATP proliferation assay (T-cell line 165-F6C, Day 32, 10 μg/mL): 1484 RLU
- response in proliferation assay (all seven Donor 3 COP T-cell lines tested, Day 54): responded well
- reactivity in confirmatory ATP proliferation assay (six Donor 3 COP lines, Day 32, 10 μg/mL (Table 23)): showed reactivity
